Paper PMC3084839, “Origin of Secretin Receptor Precedes the Advent of Tetrapoda: Evidence on the Separated Origins of Secretin and Orexin” (PLoS ONE, 2011)
Ends that are not written are not given here.

T1: lfSCTR (P. dolloi secretin receptor) (Protopterus dolloi, UniProt F8RUA8)
T1 sequence (F8RUA8 1-463): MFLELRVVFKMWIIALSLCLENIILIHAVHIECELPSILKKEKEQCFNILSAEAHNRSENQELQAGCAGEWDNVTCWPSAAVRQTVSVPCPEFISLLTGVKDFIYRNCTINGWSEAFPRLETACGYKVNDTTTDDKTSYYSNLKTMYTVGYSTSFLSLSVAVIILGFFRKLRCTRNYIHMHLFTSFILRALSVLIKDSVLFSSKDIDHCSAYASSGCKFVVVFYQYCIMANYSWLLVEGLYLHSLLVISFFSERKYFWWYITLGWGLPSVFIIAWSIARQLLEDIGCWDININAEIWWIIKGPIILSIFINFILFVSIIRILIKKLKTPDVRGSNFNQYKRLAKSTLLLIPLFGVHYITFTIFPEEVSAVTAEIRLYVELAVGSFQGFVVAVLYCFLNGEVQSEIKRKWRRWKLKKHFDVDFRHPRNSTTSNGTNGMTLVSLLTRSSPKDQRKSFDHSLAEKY

T2: xOX2R (Xenopus orexin type-2 receptor) (Xenopus laevis, UniProt F8RUB9)
T2 sequence (F8RUB9 1-440): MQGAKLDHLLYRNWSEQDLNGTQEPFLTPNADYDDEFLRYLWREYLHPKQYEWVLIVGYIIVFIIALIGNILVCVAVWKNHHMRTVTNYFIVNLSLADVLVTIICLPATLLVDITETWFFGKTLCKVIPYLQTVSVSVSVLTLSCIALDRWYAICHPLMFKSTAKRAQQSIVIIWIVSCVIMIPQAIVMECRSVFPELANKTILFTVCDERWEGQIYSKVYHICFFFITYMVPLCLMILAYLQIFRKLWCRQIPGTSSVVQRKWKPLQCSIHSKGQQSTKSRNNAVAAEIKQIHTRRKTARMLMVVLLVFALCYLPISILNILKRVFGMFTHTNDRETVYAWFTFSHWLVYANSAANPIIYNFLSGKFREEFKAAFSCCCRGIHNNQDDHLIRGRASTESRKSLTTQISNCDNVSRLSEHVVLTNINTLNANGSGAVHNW

B1: xSCT: 28-amino acid X. laevis secretin peptide cloned in this study, synthesized by one of the authors (protein)
chain: SSLPARSKRHVDGRFTSEFSRARGSAAIRKIINSALAGKRDIEENYQIDVPDVDNQREILKELAYNSLPELRSEEKQLTEQKAAEDLLCSAILNMLYRAPYQPLPAQSAQDYQGKNSSVEEVKHI

What was measured:
[1] = target: T1, lfSCTR (P. dolloi secretin receptor); assay: Intracellular cAMP production in lfSCTR-transfected CHO cells; assay type: cell-based; settings: for [cAMP]i stimulation of lfSCTR at 100 nM: 100 nM peptide, lfSCTR-transfected CHO-K1 cells, P<0.001; for EC50: CHO cells transiently transfected with lfSCTR, graded peptide concentrations, LANCE cAMP assay, mean ± SEM, n = 4, read-out: [cAMP]i EC50, lfSCTR
Text: (§1) Differences were considered significant when P<0.05.

[2] = target: T1, lfSCTR (P. dolloi secretin receptor); assay: Intracellular calcium mobilization in lfSCTR-transfected CHO cells; assay type: cell-based; settings: lfSCTR-transfected CHO cells preloaded with Fluo-3; confocal imaging; at least 10 independent experiments; read-out: [Ca2+]i EC50, lfSCTR
Procedure: (§2) For confocal calcium imaging, transiently transfected cells were plated at a density of 3000 cells/well in 24-well plates (Sigma-Aldrich, St. Louis, MO). After overnight incubation, cells were pre-loaded with 5 µM Fluo-3 acetoxymethyl ester (AM) (Sigma) for 45 min at 37°C in Tyrode solution consisting of (mM): 140 NaCl, 5 KCl, 1 MgCl2, 1 CaCl2, 10 glucose and 10 HEPES at pH 7.4. Calcium transient of single receptor-transfected CHO cell was recorded with a confocal imaging system (Olympus Fluoview System version 4.2 FV300 TIEMPO) mounted on an upright Olympus microscope (IX71). Peptides at concentrations ranging from 10^−5 to 10^−12 M were added at designated time point and calcium level was traced in a real-time manner using the Fluoview software (Olympus). […] For both assays, ionomycin (10 µM) was added at the end of each experiment to test the vitality of the cells.
as §1

[3] = target: T2, xOX2R (Xenopus orexin type-2 receptor); assay: Intracellular calcium mobilization in xOX2R-CHO cells; assay type: cell-based; settings: data not shown
Procedure: as §2, §1

[4] = test system: R. rugulosa pancreatic ductal cells; assay: cAMP production in primary culture of R. rugulosa pancreatic ductal cells; assay type: cell-based, Rana rugulosa; settings: positive control
Procedure: Adult male R. rugulosa was sacrificed by cervical decapitation. The freshly excised pancreas was removed and washed in Ringer solution (in mM, 85 NaCl, 4 KCl, 17.5 NaHCO3, 0.8 KH2PO4, 2 glucose, 1.5 CaCl2 and 0.8 MgCl2, pH 7.6). The excised pancreas was then minced into approximately 1 mm^3 pieces and digested at room temperature for 1 hr in the dissociation medium (Ringer solution supplemented with 0.2 mg/ml soy beans trypsin inhibitor (Sigma), 2 mg/ml BSA (Roche), 400 U/ml hyaluronidase (Sigma) and 50 U/ml collagenase (Sigma)). The tissue suspension was then washed with Ringer solution and small clusters of dissociated cells were filtered with the use of a 100-µm cell strainer (BD Falcon, US). Filtrate containing the undigested tissue, including the pancreatic ducts, was maintained in culture medium (80% Leibovitz's L-15 medium (Invitrogen) supplemented with 10% FBS and 100 U/ml Penicillin/[…] Streptomycin) in a humidified incubator at 24°C. […] The isolated pancreatic ductal cells were then used for cAMP stimulation in the presence of xSCT peptides and forskolin.

[5] = test system: orexin receptor; settings: rat anterior hypothalamus and orexin receptor-transfected cells; cited from earlier work
Text: (§3) Orexins A and B [17] or hypocretins 1 and 2 [18] are peptides isolated from the rat hypothalamus in 1998 by two independent research groups. Both peptides are derived from the same precursor protein and are produced by differential proteolytic cleavage. Because the C-terminal portions of both orexin peptides resemble the N-terminal of secretin, orexins were proposed to have originated from secretin or the related peptides in the secretin/glucagon superfamily, [19]. This hypothesis was then examined by studying the bindings of these peptides with their receptors in mammals and conf ...

[6] = test system: human orexin type-2 receptor; settings: human orexin type-2 receptor-transfected CHO cells; cited from earlier work
Text: as §3

[7] = test system: human orexin receptors; settings: cited from earlier work
Text: as §3

[8] = lfSCTR-CHO cells, micro-molar concentrations (10^-5 and 10^-6 M)

| Molecule | [cAMP]i stimulation of lfSCTR at 100 nM [1] | EC50 [1] [nM] | EC50 [2] [nM] | further results |
| --- | --- | --- | --- | --- |
| CC[C@H](C)[C@H](NC(=O)CNC(=O)[C@H](CC(=O)O)NC(=O)[C@H](CO)NC(=O)[C@@H](N)Cc1c[nH]cn1)C(=O)N[C@@H](Cc1ccccc1)C(=O)N[C@H](C(=O)N[C@@H](CC(=O)O)C(=O)N[C@@H](CO)C(=O)N[C@@H](Cc1ccc(O)cc1)C(=O)N[C@@H](CO)C(=O)N[C@@H](CCCNC(=N)N)C(=O)N[C@@H](Cc1ccc(O)cc1)C(=O)N[C@@H](CCCNC(=N)N)C(=O)N[C@@H](CCCCN)C(=O)N[C@@H](CCC(N)=O)C(=O)N[C@@H](CCSC)C(=O)N[C@@H](C)C(=O)N[C@H](C(=O)N[C@@H](CCCCN)C(=O)N[C@@H](CCCCN)C(=O)N[C@@H](Cc1ccc(O)cc1)C(=O)N[C@@H](CC(C)C)C(=O)N[C@@H](C)C(=O)N[C@@H](C)C(=O)N[C@H](C(=O)N[C@@H](CC(C)C)C(N)=O)C(C)C)C(C)C)[C@@H](C)O [hPACAP27] | significantly stimulate | 410 | 25.6 | – |
| CC(C)C[C@H](NC(=O)CNC(=O)[C@H](CCC(N)=O)NC(=O)[C@H](CC(C)C)NC(=O)[C@H](CC(C)C)NC(=O)[C@H](CCCNC(=N)N)NC(=O)[C@H](CCC(N)=O)NC(=O)[C@H](CC(C)C)NC(=O)[C@H](CCCNC(=N)N)NC(=O)[C@H](C)NC(=O)CNC(=O)[C@H](CCC(=O)O)NC(=O)[C@H](CCCNC(=N)N)NC(=O)[C@H](CC(C)C)NC(=O)[C@H](CCCNC(=N)N)NC(=O)[C@H](CO)NC(=O)[C@H](CC(C)C)NC(=O)[C@H](CCC(=O)O)NC(=O)[C@H](CO)NC(=O)[C@@H](NC(=O)[C@H](Cc1ccccc1)NC(=O)[C@@H](NC(=O)CNC(=O)[C@H](CC(=O)O)NC(=O)[C@H](CO)NC(=O)[C@@H](N)Cc1c[nH]cn1)[C@@H](C)O)[C@@H](C)O)C(=O)N[C@H](C(N)=O)C(C)C [hSCT] | significantly stimulate | 790 | 14.7 | efficacy of hSCT relative to hPACAP27 in triggering [cAMP]i [1, 8]: 5.0 fold; efficacy of hSCT relative to hVIP in triggering [cAMP]i [1, 8]: 3.6 fold |
| Human orexin A: human orexin A peptide (QPLPDCCRQKTCSCRLYELLHGAGNHAAGILTL; ends and bridges not checked; cysteine pairing not given here; UniProt O43612 34-66, looked up) | – | – | – | [Ca2+]i response, xOX2R [3]: able to induce calcium elevations |
| C=C[C@@]1(C)CC(=O)[C@]2(O)[C@@]3(C)[C@@H](O)CCC(C)(C)[C@@H]3[C@H](O)[C@H](OC(C)=O)[C@@]2(C)O1 [Forskolin] | – | – | – | increase in cAMP level compared with the basal [4]: 20 fold |
| Porcine SCT: porcine secretin, literature result (HSDGTFTSELSRLRDSARLQRLLQGLV; ends and bridges not checked; UniProt P63298 33-59, looked up) | – | – | – | displacement of [125I] orexin A binding [5]: found to displace |
| Human orexin B: human orexin B peptide | – | – | – | [Ca2+]i response, xOX2R [3]: able to induce calcium elevations |
| CC[C@H](C)[C@H](NC(=O)[C@H](CO)NC(=O)[C@H](CC(N)=O)NC(=O)[C@H](CC(C)C)NC(=O)[C@H](Cc1ccc(O)cc1)NC(=O)[C@H](CCCCN)NC(=O)[C@H](CCCCN)NC(=O)[C@@H](NC(=O)[C@H](C)NC(=O)[C@H](CCSC)NC(=O)[C@H](CCC(N)=O)NC(=O)[C@H](CCCCN)NC(=O)[C@H](CCCNC(=N)N)NC(=O)[C@H](CC(C)C)NC(=O)[C@H](CCCNC(=N)N)NC(=O)[C@@H](NC(=O)[C@H](Cc1ccc(O)cc1)NC(=O)[C@H](CC(N)=O)NC(=O)[C@H](CC(=O)O)NC(=O)[C@@H](NC(=O)[C@H](Cc1ccccc1)NC(=O)[C@@H](NC(=O)[C@H](C)NC(=O)[C@H](CC(=O)O)NC(=O)[C@H](CO)NC(=O)[C@@H](N)Cc1c[nH]cn1)C(C)C)[C@@H](C)O)[C@@H](C)O)C(C)C)C(=O)N[C@@H](CC(C)C)C(=O)N[C@@H](CC(N)=O)C(N)=O [hVIP] | significantly stimulate | 160 | 10.3 | – |
| SCT: secretin, species not stated, in cited human orexin receptor studies | – | – | – | calcium elevation [6]: unable; displacement of [125I] orexin A [6]: unable to displace; agonistic or antagonistic effects [7]: neither agonistic nor antagonistic effects |
| B1 | – | 1820 | 273 | – |
